{
  "source": "patent US10988792B2",
  "about": "“Methods for antimicrobial resistance determination” (bioMerieux, Inc., priority 2009, dated 2021)",
  "key": {"E. faecium 13185 (VRE)": {"system": "E. faecium 13185 (VRE)", "test": "Co-culture with vancomycin and Sytox Green, intrinsic fluorescence and membrane integrity of pellet", "format": "cell-based", "settings": "for Microbial NADH fluorescence (Ex340 nm/Em440 nm) / Microbial tryptophan fluorescence (Ex300 nm/Em360 nm): 13185 (VRE)", "protocol": "(§1) For each test strain, a 1 μL loopful of colonies from a 24-48 hour plate was suspended in 10-12 mL of BacT/ALERT SA media and cultured for 4-9 hours at 37° C. […] Aliquots of the cultures were removed for analysis immediately (T0) and after 1, 2.5 and 4 hours.\n(§2) At the appropriate time-point, 0.5 mL aliquots of the cultures (0.5 mL) were overlaid on a density cushion composed of 24% w/v CsCl in 10 mM Hepes, pH 7.4 and 0.005% Pluronic F-108 contained in custom-made optical centrifugation tubes as disclosed in related U.S. patent application, Ser. No. 12/589,969, entitled “Separation Device for Use in the Separation, Characterization and/or Identification of Microorganisms”, filed Oct. 30, 2009. The tubes were sealed and centrifuged at 10,000 rpm for 2 minutes to separate intact microorganisms from the culture medium and unbound chemicals. The tubes were then placed into a custom-built tube holder directly onto a fiber optic probe built into the base. The probe was attached to a FluoroLog 3 spectrofluorimeter. The tube was interrogated through its UV-transparent base, and fluorescence and diffuse reflectance readings collected."}, "E. faecium 12406 (VRE)": {"system": "E. faecium 12406 (VRE)", "test": "Co-culture with vancomycin and Sytox Green, intrinsic fluorescence and membrane integrity of pellet", "format": "cell-based", "settings": "12406 (VRE)", "protocol": "as §1, §2"}, "[1]": {"settings": "VRE strain 13185, vancomycin 2.5 and 12.5 μg/mL"}},
  "data": [
    {"smiles": "CN[C@H](CC(C)C)C(=O)N[C@H]1C(=O)N[C@@H](CC(N)=O)C(=O)N[C@H]2C(=O)N[C@H]3C(=O)N[C@H](C(=O)N[C@H](C(=O)O)c4cc(O)cc(O)c4-c4cc3ccc4O)[C@H](O)c3ccc(c(Cl)c3)Oc3cc2cc(c3O[C@@H]2O[C@H](CO)[C@@H](O)[C@H](O)[C@H]2O[C@H]2C[C@](C)(N)[C@H](O)[C@H](C)O2)Oc2ccc(cc2Cl)[C@H]1O", "note": "[vancomycin]", "values": [
      {"measurement": "Microbial NADH fluorescence (Ex340 nm/Em440 nm)", "setting": "E. faecium 13185 (VRE); Vanc. 0.25 μg/mL, 1 hour", "result": "708,442"},
      {"measurement": "Microbial tryptophan fluorescence (Ex300 nm/Em360 nm)", "setting": "E. faecium 13185 (VRE); Vanc. 0.25 μg/mL, 1 hour", "result": "557,453"},
      {"measurement": "Microbial NADH fluorescence (Ex340 nm/Em440 nm)", "setting": "E. faecium 13185 (VRE); Vanc. 0.25 μg/mL, 2.5 hour", "result": "496,545"},
      {"measurement": "Microbial tryptophan fluorescence (Ex300 nm/Em360 nm)", "setting": "E. faecium 13185 (VRE); Vanc. 0.25 μg/mL, 2.5 hour", "result": "809,317"},
      {"measurement": "Microbial NADH fluorescence (Ex340 nm/Em440 nm)", "setting": "E. faecium 13185 (VRE); Vanc. 0.25 μg/mL, 4 hour", "result": "627,392"},
      {"measurement": "Microbial tryptophan fluorescence (Ex300 nm/Em360 nm)", "setting": "E. faecium 13185 (VRE); Vanc. 0.25 μg/mL, 4 hour", "result": "880,899"},
      {"measurement": "Microbial NADH fluorescence (Ex340 nm/Em440 nm)", "setting": "E. faecium 13185 (VRE); Vanc. 0.25 μg/mL, Zero time", "result": "316,618"},
      {"measurement": "Microbial tryptophan fluorescence (Ex300 nm/Em360 nm)", "setting": "E. faecium 13185 (VRE); Vanc. 0.25 μg/mL, Zero time", "result": "546,862"},
      {"measurement": "Microbial NADH fluorescence (Ex340 nm/Em440 nm)", "setting": "E. faecium 13185 (VRE); Vanc. 2.5 μg/mL, 1 hour", "result": "237,463"},
      {"measurement": "Microbial tryptophan fluorescence (Ex300 nm/Em360 nm)", "setting": "E. faecium 13185 (VRE); Vanc. 2.5 μg/mL, 1 hour", "result": "569,043"},
      {"measurement": "Microbial NADH fluorescence (Ex340 nm/Em440 nm)", "setting": "E. faecium 13185 (VRE); Vanc. 2.5 μg/mL, 2.5 hour", "result": "965,305"},
      {"measurement": "Microbial tryptophan fluorescence (Ex300 nm/Em360 nm)", "setting": "E. faecium 13185 (VRE); Vanc. 2.5 μg/mL, 2.5 hour", "result": "489,661"},
      {"measurement": "Microbial NADH fluorescence (Ex340 nm/Em440 nm)", "setting": "E. faecium 13185 (VRE); Vanc. 2.5 μg/mL, 4 hour", "result": "782,908"},
      {"measurement": "Microbial tryptophan fluorescence (Ex300 nm/Em360 nm)", "setting": "E. faecium 13185 (VRE); Vanc. 2.5 μg/mL, 4 hour", "result": "868,768"},
      {"measurement": "Microbial NADH fluorescence (Ex340 nm/Em440 nm)", "setting": "E. faecium 13185 (VRE); Vanc. 2.5 μg/mL, Zero time", "result": "256,533"},
      {"measurement": "Microbial tryptophan fluorescence (Ex300 nm/Em360 nm)", "setting": "E. faecium 13185 (VRE); Vanc. 2.5 μg/mL, Zero time", "result": "531,239"},
      {"measurement": "Microbial tryptophan fluorescence (Ex300 nm/Em360 nm)", "setting": "E. faecium 13185 (VRE); Vanc. 12.5 μg/mL, 1 hour", "result": "579,537"},
      {"measurement": "Microbial NADH fluorescence (Ex340 nm/Em440 nm)", "setting": "E. faecium 13185 (VRE); Vanc. 12.5 μg/mL, 2.5 hour", "result": "775,629"},
      {"measurement": "Microbial tryptophan fluorescence (Ex300 nm/Em360 nm)", "setting": "E. faecium 13185 (VRE); Vanc. 12.5 μg/mL, 2.5 hour", "result": "537,067"},
      {"measurement": "Microbial NADH fluorescence (Ex340 nm/Em440 nm)", "setting": "E. faecium 13185 (VRE); Vanc. 12.5 μg/mL, 4 hour", "result": "710,100"},
      {"measurement": "Microbial tryptophan fluorescence (Ex300 nm/Em360 nm)", "setting": "E. faecium 13185 (VRE); Vanc. 12.5 μg/mL, 4 hour", "result": "782,106"},
      {"measurement": "Microbial NADH fluorescence (Ex340 nm/Em440 nm)", "setting": "E. faecium 13185 (VRE); Vanc. 12.5 μg/mL, Zero time", "result": "234,554"},
      {"measurement": "Microbial tryptophan fluorescence (Ex300 nm/Em360 nm)", "setting": "E. faecium 13185 (VRE); Vanc. 12.5 μg/mL, Zero time", "result": "537,160"},
      {"measurement": "Course of cellular NADH levels", "setting": "E. faecium 13185 (VRE); [1]", "result": "rose after approximately 1 hour in culture and continued to rise over the 4-hour culture period"},
      {"measurement": "Course of cellular tryptophan levels", "setting": "E. faecium 13185 (VRE); [1]", "result": "rose slowly over the 4-hour culture period"},
      {"measurement": "Microbial NADH fluorescence (Ex340 nm/Em440 nm)", "setting": "E. faecium 12406 (VRE); Vanc. 0.25 μg/mL, 1 hour", "result": "616,448"},
      {"measurement": "Microbial tryptophan fluorescence (Ex300 nm/Em360 nm)", "setting": "E. faecium 12406 (VRE); Vanc. 0.25 μg/mL, 1 hour", "result": "666,793"},
      {"measurement": "Microbial NADH fluorescence (Ex340 nm/Em440 nm)", "setting": "E. faecium 12406 (VRE); Vanc. 0.25 μg/mL, 2.5 hour", "result": "703,451"},
      {"measurement": "Microbial tryptophan fluorescence (Ex300 nm/Em360 nm)", "setting": "E. faecium 12406 (VRE); Vanc. 0.25 μg/mL, 2.5 hour", "result": "679,880"},
      {"measurement": "Microbial NADH fluorescence (Ex340 nm/Em440 nm)", "setting": "E. faecium 12406 (VRE); Vanc. 0.25 μg/mL, 4 hour", "result": "598,853"},
      {"measurement": "Microbial tryptophan fluorescence (Ex300 nm/Em360 nm)", "setting": "E. faecium 12406 (VRE); Vanc. 0.25 μg/mL, 4 hour", "result": "800,658"},
      {"measurement": "Microbial NADH fluorescence (Ex340 nm/Em440 nm)", "setting": "E. faecium 12406 (VRE); Vanc. 0.25 μg/mL, Zero time", "result": "207,307"},
      {"measurement": "Microbial tryptophan fluorescence (Ex300 nm/Em360 nm)", "setting": "E. faecium 12406 (VRE); Vanc. 0.25 μg/mL, Zero time", "result": "463,942"},
      {"measurement": "Microbial tryptophan fluorescence (Ex300 nm/Em360 nm)", "setting": "E. faecium 12406 (VRE); Vanc. 2.5 μg/mL, 1 hour", "result": "560,948"},
      {"measurement": "Microbial NADH fluorescence (Ex340 nm/Em440 nm)", "setting": "E. faecium 12406 (VRE); Vanc. 2.5 μg/mL, 2.5 hour", "result": "573,926"},
      {"measurement": "Microbial tryptophan fluorescence (Ex300 nm/Em360 nm)", "setting": "E. faecium 12406 (VRE); Vanc. 2.5 μg/mL, 2.5 hour", "result": "656,768"},
      {"measurement": "Microbial NADH fluorescence (Ex340 nm/Em440 nm)", "setting": "E. faecium 12406 (VRE); Vanc. 2.5 μg/mL, 4 hour", "result": "931,786"},
      {"measurement": "Microbial tryptophan fluorescence (Ex300 nm/Em360 nm)", "setting": "E. faecium 12406 (VRE); Vanc. 2.5 μg/mL, 4 hour", "result": "651,886"},
      {"measurement": "Microbial NADH fluorescence (Ex340 nm/Em440 nm)", "setting": "E. faecium 12406 (VRE); Vanc. 2.5 μg/mL, Zero time", "result": "440,416"}
    ]}
  ]
}
